# Results from patent publication US20200316077A1, “PHARMACEUTICAL COMPOSITION FOR THE TREATMENT OF CANCER” (IMPETIS BIOSCIENCES LTD., priority 2017, published 2020).
# Tests used:
# [1] = test system: 4T1 cells (breast cancer); assay: 4T1 Breast Cancer Model: tumor suppression in mice; type: in vivo; conditions: BALB/c mice, 3 mg/kg, PO, BID, Day 28, n = 12
# Description: (§1) Tumor Suppression Activity of Adenosine A2A (Compound 31) and A2B (Compound 169) Antagonists in Xenograft Models of Cancer
# (§2) General Protocol: 6-8 weeks old BALB/c mice were acclimated and on Day 1 of the study, the mice were injected with 50 μL of medium containing 5×10^4 4T1 cells (breast cancer) or 5×10^5 CT26 cells (colon cancer). On day 8 or 9, the mice were segregated into different groups and treated orally with either vehicle (1% Tween-80+0.5% Carboxymethylcellulose in water) or test compound [(Compound 32 5-Amino-3-[2-[4-[2-fluoro-4-(2-methoxyethoxy)phenyl]piperazin-1-yl]ethyl]-8-(2-furyl)-1-methyl-[1,2,4]triazolo[5,1-f]purin-2-one (32) & Phosphoric acid mono-{2-cyano-6-oxo-1-propyl-8-[1-(3-trifluoromethyl-benzyl)-1H-pyrazol-4-yl]-1,6-dihydro-purin-7-ylmethyl} ester (335)] in vehicle. The treatment was BID for 22 days (colon cancer) or 28 days (breast cancer). At the end of the study, the tumor volume was measured as (length X breadth)/2. Data were presented as % reduction compared to the tumor volume in vehicle treated animals.
# [2] = test system: CT26 cells (colon cancer); assay: CT26 Colon Cancer Model: tumor suppression in mice; type: in vivo; conditions: BALB/c mice, 3 mg/kg, PO, BID, Day 22, n = 12
# Description: as §1, §2
compound,measurement,setting,value
"CCCn1c(C#N)nc2nc(-c3cnn(Cc4cccc(C(F)(F)F)c4)c3)n(COP(=O)(O)O)c2c1=O [Compound 335, Phosphoric acid mono-{2-cyano-6-oxo-1-propyl-8-[1-(3-trifluoromethyl-benzyl)-1H-pyrazol-4-yl]-1,6-dihydro-purin-7-ylmethyl} ester]",% decrease in Tumor growth vs. vehicle On Day 28,[1],46.40%
same,% decrease in Tumor growth vs. vehicle On Day 22,[2],23.90%
